Experimental data from patent US20230041996A1, “CALCIUM-SENSING RECEPTOR AGONIST COMPOUND AND APPLICATION THEREOF” (BEIJING TUO JIE BIOPHARMACEUTICAL CO. LTD., priority 2019, published 2023).
Square brackets hold non-standard residues; d marks the D form. Peptide text beside a SMILES is read from it. * marks the point of attachment. dPhe(4-Me) = Cc1ccc(C[C@@H](N)C(=O)O)cc1; Cys(free,S-linked) = N[C@@H](CS*)C(=O)O; d(hLeu) = CC(C)CC[C@@H](N)C(=O)O

Tests used:
Assay type in all cases: cell-based
[1] = molecular target: T1, human calcium-sensing receptor (CaSR) (Homo sapiens, UniProt P41180); assay: Agonist activity on human calcium-sensing receptor (IP-One HTRF in stably transfected HEK293/CaSR cells); conditions: HEK293/CaSR cells, IP-One production, 60 min at 37° C., CaCl2 1.2 mM; read-out: EC50 for calcium-sensing receptor
T1 construct: host or cells: HEK293
T1 sequence (P41180 20-1078): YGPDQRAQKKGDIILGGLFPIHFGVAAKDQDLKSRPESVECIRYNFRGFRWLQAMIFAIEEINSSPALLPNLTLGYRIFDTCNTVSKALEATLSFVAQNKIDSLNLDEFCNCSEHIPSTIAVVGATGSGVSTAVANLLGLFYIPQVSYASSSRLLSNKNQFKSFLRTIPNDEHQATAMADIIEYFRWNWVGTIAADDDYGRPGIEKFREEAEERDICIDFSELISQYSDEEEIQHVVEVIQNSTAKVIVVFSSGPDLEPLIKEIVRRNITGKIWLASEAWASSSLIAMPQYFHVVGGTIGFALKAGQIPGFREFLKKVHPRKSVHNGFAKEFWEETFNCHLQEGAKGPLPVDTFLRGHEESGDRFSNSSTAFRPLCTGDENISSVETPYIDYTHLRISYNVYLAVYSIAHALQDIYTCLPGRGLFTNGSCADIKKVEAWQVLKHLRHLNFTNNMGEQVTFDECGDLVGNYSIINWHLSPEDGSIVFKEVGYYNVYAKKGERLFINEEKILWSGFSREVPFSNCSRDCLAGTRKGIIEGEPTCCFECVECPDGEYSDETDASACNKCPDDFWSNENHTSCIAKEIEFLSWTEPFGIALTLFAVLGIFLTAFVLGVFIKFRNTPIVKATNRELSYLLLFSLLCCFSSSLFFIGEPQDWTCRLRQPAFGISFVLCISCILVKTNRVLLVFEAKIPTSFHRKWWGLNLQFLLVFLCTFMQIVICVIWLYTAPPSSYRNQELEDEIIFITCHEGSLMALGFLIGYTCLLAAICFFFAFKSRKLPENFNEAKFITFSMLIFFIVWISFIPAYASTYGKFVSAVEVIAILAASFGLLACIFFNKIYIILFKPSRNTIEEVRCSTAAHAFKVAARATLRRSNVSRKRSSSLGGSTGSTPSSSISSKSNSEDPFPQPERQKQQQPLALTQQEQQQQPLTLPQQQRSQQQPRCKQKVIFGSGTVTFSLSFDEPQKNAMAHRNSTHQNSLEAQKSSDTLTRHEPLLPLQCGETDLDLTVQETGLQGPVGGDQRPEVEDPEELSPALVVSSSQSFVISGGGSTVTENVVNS
Outline: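 HEK293 cells stably expressing CaSR stimulated 60 min at 37 °C with compounds in buffer containing 1.2 mM CaCl2, 0.5 mM MgCl2 and 50 mM LiCl. IP-One accumulation measured by HTRF (665/620 nm ratio); EC50 from four-parameter fit.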

[2] = system: rat peritoneal mast cells; assay: In vitro histamine release in rat peritoneal mast cells (histamine ELISA); conditions: for Relative fold of histamine release in vitro: test compound final concentration 10 μM, 15 min at 37° C., relative to PBS buffer (1.00)
Description: To evaluate the in vitro histamine release levels induced by some of the test example compounds, rat peritoneal mast cells were collected by lavaging rat peritoneum with a lavage buffer (cold HBSS+25 mM HEPES containing heparin 5 U/mL, pH 7.4). After collection, the cells were centrifuged, and the lavage buffer was discarded. The cells were resuspended and washed twice with a stimulation buffer (HBSS+25 mM HEPES+1 mM CaCl2), pH 7.4). The cells were plated at a density of 10^5 cell/well (200 μL/well) and incubated at 37° C. for 15 min with positive control compound 48/80 (final concentration: 4 μg/mL), test example compounds (final concentration: 10 μM) or vehicle control. The cells were centrifuged, and cell supernatant was collected and tested for histamine concentration according to LDN Histamine ELISA kit (BAE-1000) instructions.

human red blood cells = assay: Hemolytic effect on human red blood cells in vitro (absorbance at 540 nm); conditions: 37° C., 1 h, FIG. 1
Description: To evaluate the hemolytic effect of the compounds disclosed herein on red blood cells in vitro, human whole blood (100 μL) was taken and mixed with a phosphate buffer. The mixture was centrifuged at 4° C. for 10 min and the supernatant was discarded. The red blood cells were resuspended in PBS buffer (900 μL) and centrifuged at 4° C. for 10 min with the supernatant discarded, and the procedures above were repeated once. The test example compounds were dissolved in 1×PBS buffer to a final concentration of 100 μg/mL. The red blood cells were resuspended in solutions of various test example compounds, an octylphenoxy poly(ethyleneoxy)ethanol-100 solution or PBS buffer, and incubated at 37° C. for 1 h. After incubation, the cells were centrifuged at 4° C. for 10 min and the supernatant (100 μL) was pipetted and transferred to a 96-well plate. The absorbance at 540 nm was detected for evaluating the hemolytic effect of the test example compounds on red blood cells in vitro.

Compound	EC50 [1]	Relative fold of histamine release in vitro [2]	hemolytic effect on red blood cells (human red blood cells; 100 μg/mL in PBS)	histamine release levels in rat peritoneal mast cells in vitro relative to etelcalcetide ([2]; 10 μM, comparison with etelcalcetide)	hemolytic effect on red blood cells (human red blood cells; positive control solution)
CC(=O)N[C@H](CSSC[C@H](N)C(=O)O)C(=O)N[C@H](CCCNC(=N)N)C(=O)N[C@H](CCCNC(=N)N)C(=O)N[C@H](Cc1ccc(C)cc1)C(=O)N[C@H](CCCNC(=N)N)C(=O)N[C@H](C)C(=O)N[C@H](CCCNC(=N)N)C(N)=O [Compound 12, Ac-c(C)-r-r-[D-Phe(4-CH3)]-r-a-r-NH2] (Ac-[dC](Cys(free,S-linked))[dR][dR][dPhe(4-Me)][dR][dA][dR]-NH2)	1280 nM	2.81	no significant hemolytic effect		
CC(=O)N[C@H](CSSC[C@H](N)C(=O)O)C(=O)N[C@H](CCCNC(=N)N)C(=O)N[C@H](CCCNC(=N)N)C(=O)N[C@H](CCC(C)C)C(=O)N[C@H](CCCNC(=N)N)C(=O)N[C@H](C)C(=O)N[C@H](CCCNC(=N)N)C(N)=O [Compound 19, Ac-c(C)-r-r-(D-hLeu)-r-a-r-NH2] (Ac-[dC](Cys(free,S-linked))[dR][dR][d(hLeu)][dR][dA][dR]-NH2)	2050 nM	2.07	no significant hemolytic effect		
CC(=O)N[C@H](CSSC[C@H](N)C(=O)O)C(=O)N[C@H](CCCNC(=N)N)C(=O)N[C@H](CCCNC(=N)N)C(=O)N[C@@H](C(=O)N[C@H](CCCNC(=N)N)C(=O)N[C@H](CO)C(=O)N[C@H](CCCNC(=N)N)C(N)=O)C(C)C [Compound 29, Ac-c(C)-r-r-v-r-s-r-NH2] (Ac-[dC](Cys(free,S-linked))[dR][dR][dV][dR][dS][dR]-NH2)	9800 nM	0.99	no significant hemolytic effect	reduction in histamine release levels	
octylphenoxy poly(ethyleneoxy)ethanol-100 [reference compound]					significant hemolytic effect
